According to publication PMC7792806, “Development of Second Generation Activity-Based Chemical Probes for Sirtuins” (Molecules, 2020):

Tests used:
SIRT5 = target: T1, SIRT5 (Homo sapiens, UniProt Q9NXA8); experiment: In-cell labeling of SIRT5 with probe 2B, cellular imaging; type: cell-based; conditions: 1 mM NR for 6 h, then 50 μM probe 2B, 15 min irradiation at 365 nm; compared with control cells
T1 construct: endogenous in cells; host or cells: HEK293
T1 sequence (Q9NXA8 37-310): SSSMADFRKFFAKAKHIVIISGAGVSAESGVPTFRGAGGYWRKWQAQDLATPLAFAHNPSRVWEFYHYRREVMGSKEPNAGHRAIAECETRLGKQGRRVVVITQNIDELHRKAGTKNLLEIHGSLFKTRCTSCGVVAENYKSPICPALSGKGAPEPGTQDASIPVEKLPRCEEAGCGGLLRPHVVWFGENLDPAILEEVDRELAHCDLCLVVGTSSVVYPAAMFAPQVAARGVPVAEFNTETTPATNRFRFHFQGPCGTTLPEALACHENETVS
Experimental: HEK293 cells overexpressing SIRT5 were subjected to a treatment known to increase the cellular NAD^+ level. […] Then, the cells were incubated with 50 μM probe 2B and irradiated at 365 nm for 15 min on ice. Subsequently, the cells were treated with freshly prepared “click” staining mix as described in “Materials and Methods”. After the “click” reaction, cells were incubated with anti-SIRT5 antibody before the images were acquired.
Cells were seeded in 35 mm glass-bottom dishes (MatTek, Ashland, MA, USA) and grew until 70 to 80% confluence. Then, the cells were incubated in the presence or absence of 1 mM NR for 6 h before the medium was discarded. The cells were gently rinsed with fresh growth medium three times. Subsequently, the cells were incubated with 50 μM probe 2B for 1 h before the culture dishes were placed on ice. The cells were irradiated at 365 nm in cold room for 15 min followed by fixation with 4% paraformaldehyde and permeabilization with 0.2% Triton X-100 in PBS. Then, the cells were treated with freshly prepared “click” staining mix (10 μM TAMRA-azide, 1 mM CuSO4 and 1 mM TBTA in 2 mL of deionized water), followed by the addition of 2 mM TCEP. […]
Fluorescence microscopy was carried out on a Leica TCS SP5 confocal microscope (Leica Microsystems, Mannheim, Germany). […] Images were acquired and processed using Leica Application Suite Advanced Fluorescence (LAS AF) software.

[1] = tested on: HEK293 cells overexpressing SIRT5; experiment: Cellular NAD+ measurement, NAD+ cycling assay; type: cell-based, human; conditions: 1 mM for 6 h
Experimental: HEK293 cells overexpressing SIRT5 were subjected to a treatment known to increase the cellular NAD^+ level.
To the cell pellet was added 30 μL of ice-cold 7% perchloric acid; then, the sample was vortexed for 30 s and then sonicated on ice for 5 min. The vortex–sonication cycle was repeated three times. Then, the sample was centrifuged for 3 min at room temperature. Clear supernatant was taken out and neutralized to pH 7 with 3 M NaOH and 1 M phosphate buffer (pH 9). NAD^+ level was then measured using NAD^+ cycling assay as described previously [14].

[2] = tested on: SIRT1, SIRT2, SIRT3, and SIRT6; experiment: Labeling of individual recombinant sirtuins, in-gel fluorescence; type: biochemical, human; conditions: Figure S1
Experimental: (§1) The improved inhibitory effects of the 2nd generation ABPs prompted us to evaluate the labeling efficiency of these new probes. We first compared the abilities of benzophenone-based probe 1A and diazirine-based probe 2A to label recombinant SIRT2. The enzyme was incubated with NAD^+ and the probe, and then irradiated at 365 nm for 1 h. Subsequently, the sample was conjugated to TAMRA-azide via Cu(I)-catalyzed “click” reaction. The sample was resolved by SDS-PAGE and detected by in-gel fluorescence scanning.
A typical labeling experiment was performed as follows: in a 0.7 mL Eppendorf tube, purified recombinant human sirtuin (10 μM) was incubated with NAD^+ (500 μM) and activity-based probe at 37 °C for 10 min. The sample was transferred to a clear-bottom 96-well plate, placed on ice, and irradiated at 365 nm with a UV-lamp in a cold room. Subsequently, ingredients of the “click-chemistry” including azide-fluor 545, CuSO4, reducing agent (tris(2-carboxyethyl)phosphine, TCEP) and stabilizing agent (tris[(1-benzyl-1H-1,2,3-triazol-4-yl)methyl]amine, TBTA) were added, and the sample was gently agitated at 250 rpm on a microshaker at room temperature for 30 min. Then, the sample was resolved by SDS-PAGE. […] Then, destained gel was analyzed with in-gel fluorescence scanning using a Biorad ChemiDoc MP imager (excitation 532 nm, 580 nm cut-off filter and 30 nm band-pass). […]

SIRT3 = target: T2, SIRT3 (Homo sapiens, UniProt Q9NTG7); experiment: Sirtuin inhibition assay (HPLC), SIRT3; type: biochemical; conditions: ratio of IC50s
T2 construct: SIRT3 (102-399); made in house
T2 sequence (Q9NTG7 102-399): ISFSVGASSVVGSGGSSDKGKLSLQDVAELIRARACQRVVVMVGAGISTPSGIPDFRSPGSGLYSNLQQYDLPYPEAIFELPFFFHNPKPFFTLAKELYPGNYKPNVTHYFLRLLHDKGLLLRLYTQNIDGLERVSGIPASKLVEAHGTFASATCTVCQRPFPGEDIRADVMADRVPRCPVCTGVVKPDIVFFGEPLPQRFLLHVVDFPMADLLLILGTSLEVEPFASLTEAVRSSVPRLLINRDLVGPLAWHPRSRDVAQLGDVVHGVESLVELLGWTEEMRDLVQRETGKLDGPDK
Experimental: (§2) Plasmids of SIRT1 (full length), SIRT2 (38-356), SIRT3 (102-399), and SIRT5 (34-302) were generous gifts from Dr. Hening Lin (Cornell University, Ithaca, NY, USA). SIRT6 was a gift from Cheryl Arrowsmith (Addgene plasmid #28271). The proteins were expressed and purified according to previously published protocols. The identity of the protein was confirmed by tryptic digestion followed by LC-MS/MS analysis performed at the Vermont Genetic Network (VGN) Proteomics Facility. Protein concentrations were determined by Bradford assay (Thermo Fisher Scientific, Rockford, IL, USA).
(§3) A typical reaction contained 500 μM NAD^+ and 500 μM peptide substrate (H3K9Ac for SIRT2, SIRT3 and SIRT6, p53K382Ac for SIRT1 and SIRT5) of varying concentrations of a small molecule probe in 100 mM phosphate buffer pH 7.5. The reactions were initiated by the addition of 10 μM of sirtuin and were incubated at 37 °C before being quenched by 8 μL of 10% TFA. The incubation time was controlled so that the conversion of substrate was less than 15%. The samples were then injected on an HPLC fitted to a Macherey-Nagel Nucleosil C18 column. NAD^+, NAM and AADPR (acetyl-ADP-ribose) peaks were resolved using a gradient of 0 to 20% methanol in 20 mM ammonium acetate. Chromatograms were analyzed at 260 nm. Reactions were quantified by integrating areas of peaks corresponding to NAD^+ and AADPR. Rates were plotted as a function of small molecule probe concentration, and points were fitted to the following equation:ν(%) = ν0(%) − [ν0(%)(10^x)/(10^x + IC50)](1) where ν(%) represents the turnover rate expressed as percent enzymatic activity remaining, and ν0(%) represents the uninhibited turnover rate expressed as an enzymatic activity of 100%. The variable x represents the log[probe] in nanomolar. IC50 values were derived from this equation.

SIRT1 [3] = target: T3, SIRT1 (Homo sapiens, UniProt Q96EB6); experiment: Sirtuin inhibition assay (HPLC), SIRT1; type: biochemical; conditions: ratio of IC50s
T3 construct: Plasmids of SIRT1 (full length); made in house
T3 sequence (Q96EB6 1-747): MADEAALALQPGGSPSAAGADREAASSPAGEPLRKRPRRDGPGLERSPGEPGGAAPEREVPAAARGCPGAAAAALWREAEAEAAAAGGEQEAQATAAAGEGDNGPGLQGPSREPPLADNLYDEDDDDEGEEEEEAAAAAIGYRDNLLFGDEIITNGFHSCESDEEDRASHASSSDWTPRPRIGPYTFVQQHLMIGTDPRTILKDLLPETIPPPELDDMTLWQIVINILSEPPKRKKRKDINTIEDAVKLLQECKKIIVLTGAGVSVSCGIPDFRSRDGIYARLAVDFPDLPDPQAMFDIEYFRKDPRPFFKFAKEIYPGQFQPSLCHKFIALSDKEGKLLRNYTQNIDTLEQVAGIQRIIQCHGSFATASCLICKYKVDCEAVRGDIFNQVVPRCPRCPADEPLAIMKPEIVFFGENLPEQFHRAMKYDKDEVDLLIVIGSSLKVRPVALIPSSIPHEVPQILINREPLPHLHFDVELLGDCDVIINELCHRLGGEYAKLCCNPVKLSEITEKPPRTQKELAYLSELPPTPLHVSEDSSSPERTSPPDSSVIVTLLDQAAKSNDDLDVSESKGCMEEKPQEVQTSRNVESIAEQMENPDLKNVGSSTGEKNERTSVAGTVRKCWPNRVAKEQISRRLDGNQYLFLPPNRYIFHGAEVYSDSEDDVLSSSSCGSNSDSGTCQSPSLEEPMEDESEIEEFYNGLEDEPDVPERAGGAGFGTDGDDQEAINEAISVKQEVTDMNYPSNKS
Experimental: as §2, §3

SIRT2 = target: T4, SIRT2 (Homo sapiens, UniProt Q8IXJ6); experiment: Photoaffinity labeling of recombinant SIRT2, in-gel fluorescence; type: biochemical
T4 construct: SIRT2 (38-356); made in house
T4 sequence (Q8IXJ6 38-356): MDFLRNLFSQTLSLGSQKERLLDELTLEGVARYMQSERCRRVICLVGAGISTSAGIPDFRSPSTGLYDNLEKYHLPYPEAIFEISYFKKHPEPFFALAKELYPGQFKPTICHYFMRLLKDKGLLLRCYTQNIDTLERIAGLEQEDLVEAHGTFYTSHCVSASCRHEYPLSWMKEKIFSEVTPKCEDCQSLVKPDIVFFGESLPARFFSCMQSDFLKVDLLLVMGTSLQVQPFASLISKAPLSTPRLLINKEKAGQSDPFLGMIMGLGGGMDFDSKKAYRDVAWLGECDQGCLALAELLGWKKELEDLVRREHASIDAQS
Experimental: as §1
Figure 3 Comparison of labeling efficiencies of probes 1A and 2A. (A) Concentration-dependent labeling of SIRT2. SIRT2 (10 μM) was incubated with 500 μM NAD^+ and indicated concentrations of probe 1A or 2A in 100 mM phosphate buffer pH 7.5. The samples were incubated at 37 °C for 10 min, subjected to UV irradiation for 1 h, and then “click” conjugated to TAMRA-azide as described in “Materials and Methods”; (B) and (C) Time-dependent labeling of SIRT2 by probe 2A. The labeling reached plateau within 20 min.
A typical labeling experiment was performed as follows: in a 0.7 mL Eppendorf tube, purified recombinant human sirtuin (10 μM) was incubated with NAD^+ (500 μM) and activity-based probe at 37 °C for 10 min. […] Then, destained gel was analyzed with in-gel fluorescence scanning using a Biorad ChemiDoc MP imager (excitation 532 nm, 580 nm cut-off filter and 30 nm band-pass). […]

SIRT1 [4] = experiment: Acetylation level of p53 lysine 382 in cells; type: cell-based; conditions: Figure S3

Row | labeling intensity of SIRT5 by probe 2B in cells (SIRT5) | increased inhibition of SIRT3 compared with probe 1A (SIRT3) | increased inhibition of SIRT1 compared with probe 1A (SIRT1 [3]) | labeling intensity of SIRT2 (SIRT2; 10 μM SIRT2, 500 μM NAD+, 1 h irradiation at 365 nm, all concentrations examined) | irradiation time to saturation of SIRT2 labeling (SIRT2; UV irradiation at 365 nm) | SMILES | increase of cellular NAD+ concentration [1] | labeling of recombinant sirtuins [2] | acetylation level of p53 lysine 382, combined with TSA (SIRT1 [4])
1 | increased labeling intensity | – | – | – | – | NC(=O)c1ccc[n+]([C@@H]2O[C@H](CO)[C@@H](O)[C@H]2O)c1 [NR, Nicotinamide riboside] | 170% | – | –
2 | – | 2 fold | 3 fold | more intensively than probe 1A | ≤ 20 min | C#CCCCC1(CCC(=O)N[C@@H](CCCCNC(C)=S)C(=O)N[C@@H](C)C(=O)N[C@@H](C)C(=O)OC)N=N1 [Probe 2A] | – | labeled SIRT1, SIRT2, SIRT3, and SIRT6 to different extents in dose-dependent manners | increase the acetylation level of p53 lysine 382
